Test results taken from patent EP0724571B1, “SUBSTITUTED PYRIDINE-2-ONES AND SUBSTITUTED PYRIDINE-2-THIONES AS BIOCIDES” (Arch Chemicals, Inc., priority 1993, dated 1995).
Converted amounts (≈) assume the structure as drawn.

Columns and labels:
Experiment in all cases: Minimum Inhibitory Concentration (MIC), broth serial dilution
Type in all cases: cell-based
Aureobasidium pullulans = details: F=Aureobasidium pullulans; Sabouraud Dextrose Broth, 10^5 cells or spores/ml
Description: (§1) Solutions of the experimental compounds in dimethyl sulfoxide were serially diluted in nutrient broth (Tryptic Soy Broth for bacteria and Sabouraud Dextrose Broth for fungi) in microliter plates. Equal volumes of a broth suspension of bacteria (10^6 CFU/ml) or fungi (10^5 cells or spores/ml) were added to each dilution, and the plates were incubated at 37°C (bacteria and yeast) or 28°C (molds). Bacteria, yeast and molds were incubated two, five and seven days respectively before determining the highest inhibitory dilution.

Escherichia coli = details: 48 h; A=Escherichia coli; Tryptic Soy Broth, 10^6 CFU/ml, 37°C, bacteria incubated two days
Description: as §1

Fusarium sp. = details: 168 h; D=Fusarium sp.; Sabouraud Dextrose Broth, 10^5 cells or spores/ml, 28°C, molds incubated seven days
Description: as §1

Staphylococcus aureus = details: 48 h; B=Staphylococcus aureus; Tryptic Soy Broth, 10^6 CFU/ml, 37°C, bacteria incubated two days
Description: as §1

Aspergillus niger = details: 168 h; E=Aspergillus niger; Sabouraud Dextrose Broth, 10^5 cells or spores/ml, 28°C, molds incubated seven days
Description: as §1

Candida albicans = details: 120 h; C=Candida albicans; Sabouraud Dextrose Broth, 10^5 cells or spores/ml, 37°C, yeast incubated five days
Description: as §1

Row | Compound | MIC (Aureobasidium pullulans) | MIC (Escherichia coli) | MIC (Fusarium sp.) | MIC (Staphylococcus aureus) | MIC (Aspergillus niger) | MIC (Candida albicans)
1 | CCCCCCCCOc1cccc(=S)n1O [Example 3, 1-hydroxy-6-octyloxypyridine-2(1H)-thione] | 16 µg/mL (≈ 62.7 µM) | 16 µg/mL (≈ 62.7 µM) | 4 µg/mL (≈ 15.7 µM) | 16 µg/mL (≈ 62.7 µM) | 8 µg/mL (≈ 31.3 µM) | 4 µg/mL (≈ 15.7 µM)
2 | Cc1cc(CC(C)CC(C)(C)C)n(O)c(=O)c1 (stereo not drawn) [OCTOPIROX® biocide, reference compound] | 16 to 32 µg/mL (≈ 67.4 to 135 µM) | 128 µg/mL (≈ 539 µM) | 2 µg/mL (≈ 8.43 µM) | 64 µg/mL (≈ 270 µM) | 2 µg/mL (≈ 8.43 µM) | 2 µg/mL (≈ 8.43 µM)
3 | CCCCCCCCOc1cccc(=O)n1O [Example 2, 1-Hydroxy-6-octyloxypyridine-2(1H)-one] | 4 µg/mL (≈ 16.7 µM) | 32 µg/mL (≈ 134 µM) | 2 µg/mL (≈ 8.36 µM) | 16 µg/mL (≈ 66.9 µM) | 32 µg/mL (≈ 134 µM) | 4 µg/mL (≈ 16.7 µM)
4 | CC(CCOc1cccc(=O)n1O)CC(C)(C)C (stereo not drawn) [Example 1, 1-Hydroxy-6-(3,5,5-trimethylhexyloxy)-pyridine-2(1H)-one] | 2 µg/mL (≈ 7.89 µM) | 32 µg/mL (≈ 126 µM) | 2 µg/mL (≈ 7.89 µM) | 32 µg/mL (≈ 126 µM) | 16 µg/mL (≈ 63.2 µM) | 2 µg/mL (≈ 7.89 µM)
